Experimental data reported in the supplement of paper PMC10307832.

How the values were obtained:
Test in all cases: relative viability (nuclei count vs DMSO), 5 days (fraction); higher = more cells survive
IU1-47 + OSI-027 = compound: CC1=CC(=C(N1C2=CC=C(C=C2)Cl)C)C(=O)CN3CCCCC3 [IU1-47] + COc1cccc2cc(-c3nc([C@H]4CC[C@H](C(=O)O)CC4)n4ncnc(N)c34)[nH]c12 [OSI-027] (partner 0.5 µM)
Summary of the method: (§1)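 Relative viability divides the nuclei count in treated wells by that in vehicle wells. Lung cancer cell lines were seeded in 1536-well plates, dosed by pin tool the next day, and fixed and stained after 5 days in one step with final 0.05% Triton X-100, 1% formaldehyde and 1 ug/ml Hoechst. Dosing was a single drug or a fixed anchor-drug dose plus five library-drug doses (not always all listed) in √10 steps, and values are medians of duplicate plates imaged at 4×.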

IU1-47 + Tozasertib = compound: CC1=CC(=C(N1C2=CC=C(C=C2)Cl)C)C(=O)CN3CCCCC3 [IU1-47] + Cc1cc(Nc2cc(N3CCN(C)CC3)nc(Sc3ccc(NC(=O)C4CC4)cc3)n2)n[nH]1 [Tozasertib] (partner 0.1 µM)
Summary of the method: as §1

IU1-47 + Dasatinib = compound: CC1=CC(=C(N1C2=CC=C(C=C2)Cl)C)C(=O)CN3CCCCC3 [IU1-47] + Cc1nc(Nc2ncc(C(=O)Nc3c(C)cccc3Cl)s2)cc(N2CCN(CCO)CC2)n1 [Dasatinib] (partner 0.075 µM)
Summary of the method: as §1

FG-4592 + Phenformin = compound: Cc1nc(C(=O)NCC(=O)O)c(O)c2ccc(Oc3ccccc3)cc12 [FG-4592] + N=C(N)NC(=N)NCCc1ccccc1 [Phenformin] (partner 250 µM)
Summary of the method: as §1

Cell Line: UMC-11
- relative viability (IU1-47 + OSI-027; first compound 0.08 µM): 0.498
- relative viability (IU1-47 + OSI-027; first compound 0.253 µM): 0.43
- relative viability (IU1-47 + OSI-027; first compound 0.8 µM): 0.523
- relative viability (IU1-47 + OSI-027; first compound 2.53 µM): 0.611
- relative viability (IU1-47 + OSI-027; first compound 8 µM): 0.465
- relative viability (IU1-47 + Tozasertib; first compound 0.08 µM): 0.215
- relative viability (IU1-47 + Tozasertib; first compound 0.253 µM): 0.209
- relative viability (IU1-47 + Tozasertib; first compound 0.8 µM): 0.201
- relative viability (IU1-47 + Tozasertib; first compound 2.53 µM): 0.218
- relative viability (IU1-47 + Tozasertib; first compound 8 µM): 0.214
- relative viability (IU1-47 + Dasatinib; first compound 0.08 µM): 0.429
- relative viability (IU1-47 + Dasatinib; first compound 0.253 µM): 0.423
- relative viability (IU1-47 + Dasatinib; first compound 0.8 µM): 0.572
- relative viability (IU1-47 + Dasatinib; first compound 2.53 µM): 0.388
- relative viability (IU1-47 + Dasatinib; first compound 8 µM): 0.341
- relative viability (FG-4592 + Phenformin; first compound 0.08 µM): 0.323
- relative viability (FG-4592 + Phenformin; first compound 0.253 µM): 0.291
- relative viability (FG-4592 + Phenformin; first compound 0.8 µM): 0.322
- relative viability (FG-4592 + Phenformin; first compound 2.53 µM): 0.314
- relative viability (FG-4592 + Phenformin; first compound 8 µM): 0.395
